We go through 14 compounds from patent publication US20240164998A1, “FRAGRANCE COMPOSITION” (TAKASAGO INTERNATIONAL CORPORATION, priority 2022, published 2024).

Structures are written as SMILES. Where a name gives a salt, the structure may show the parent alone.

Assay [1] in a line: Sensory evaluation of malodor prevention ability of group A against hexanal odor. Details: species or system people. The settings on record: scale 0 (no malodor felt) to 10 (very strong); hexanal alone rated 8; 10 μL hexanal diluted 100 times + 1 μL test substance, 1 hour room temperature; average of panel of 20. The protocol:
The malodor prevention ability of a test substance was confirmed by sensory evaluation. As malodor, 10 μL of hexanal diluted 100 times with dipropylene glycol and 1 μL of the test substance were dropped into a cotton ball, which was charged into a plastic bottle. The bottle was left standing at room temperature for 1 hour to allow odor molecules to sufficiently volatilize inside the bottle. A sensory evaluation test was performed by a panel of 20 people, a malodor intensity when the malodor was dropped alone was rated as 8, and the odor intensity when the test substance was mixed was evaluated from 0 (no malodor was felt) to 10 (very strong malodor was felt). An average value was calculated from the obtained numerical values.

A short description of assay [2]: Sensory evaluation of fragrance compositions against model body odor. Also noted: species or system people. The note with it: each malodor (model body odor, model nursing care odor); substance in floral base fragrance composition. As to the method: TEC in the tables indicates triethyl citrate. […] Note that, a grouping method and the ratio within the groups are optional and are not limited by Table 9. Floral bases in Table 2 to Table 8 were prepared according to Table 10.
The malodor prevention ability of these fragrance compositions was confirmed by sensory evaluation. As for malodor, model body odor and model nursing care odor containing hexanal as one of key components were prepared according to Table 11 and Table 12. 10 μL of each model malodor and 1 μL of the fragrances 1 to 60 as test substances were dropped into a cotton ball, which was charged into a plastic bottle. The bottle was left standing at room temperature for 30 minutes to allow odor molecules to sufficiently volatilize inside the bottle. A sensory evaluation test was performed by a panel of 20 people, the discomfort when the malodor was dropped alone was rated as −3, and the discomfort when the test substance was mixed was evaluated from −4 (extremely discomfortable) to +4 (extremely comfortable). An average value was calculated from the obtained numerical values.

In the case of `CC(C)[C@@H]1CC[C@@H](C)CC1=O` [Menthone, reference compound], the Hexanal odor intensity in assay [1] is listed as 6.9.
In the case of `CC1=CCC(C(C)C)C=C1` (stereo not shown) [Phellandrene, p-mentha-1,5-diene], in assay [2], the “effect on reducing the discomfort due to malodor (in words)” value (shortened to “effect on reducing the discomfort due”) is reported as “reduced the discomfort due to each malodor”. In addition, the Hexanal odor intensity in assay [1] turned out to be 4.1.
For `CC(=CCC1CC=C(C)C1(C)C)CO` (stereo not shown) [Hindinol, 2-methyl-4-(2,2,3-trimethyl-3-cyclopentenyl)-2-buten-1-ol] the same measures were “reduced the discomfort due to each malodor” and 3.9.
Consider `C=C(C)C1CC=C(C)C(=O)C1` (stereo not shown) [Carvone, reference compound], for which the Hexanal odor intensity in assay [1] amounted to 7.1.
Consider `CC(c1ccccc1)C1CC1C(C)(C)O` (stereo not shown) [Pamplefix, 50% triethyl citrate solution, dimethyl-2-(1-phenylethyl)cyclopropylmethanol], for which the “effect on reducing the discomfort due” value in assay [2] is recorded as “reduced the discomfort due to each malodor”. For the same compound, the Hexanal odor intensity in assay [1] came to 4.1.
For `CCOC(=O)C(C)C(C)S` (stereo not shown) [ethyl 3-mercapto-2-methylbutyrate] the same measures were “reduced the discomfort due to each malodor” and 3.1.
The matching figures for `CCOC(=O)C1C(C)CCCC1(C)C` (stereo not shown) [Thesaron, ethyl 2,2,6-trimethylcyclohexane-1-carboxylate]: “reduced the discomfort due to each malodor” and 2.6.
For `CCCCCC1C(=O)CCC1CC(=O)OC` (stereo not shown) [Hedione, methyl (2-pentyl-3-oxo-cyclopentyl) acetate] the same measures were “reduced the discomfort due to each malodor” and 4.2.
As to `CC1CCC(C(C)C)C(OCC(O)CO)C1` (stereo not shown) [COOLACT 10, 3-(menthoxy)propane-1,2-diol], the Hexanal odor intensity in assay [1] was determined as 3.3.
Consider `CC(=O)C1(C)CC2=C(CCCC2(C)C)CC1C` (stereo not shown) [Orbitone, 2-acetyl-2,3,8,8-tetramethyloctarine], for which the “effect on reducing the discomfort due” value in assay [2] is recorded as “reduced the discomfort due to each malodor”. For the same compound, the Hexanal odor intensity in assay [1] amounted to 3.9.
For `C=C(C)[C@@H]1CC[C@@H](C)C[C@H]1O` [Isopulegol, isopulegol] the same measures were “reduced the discomfort due to each malodor” and 3.4.
For `CC(=O)C(C)=CC1C(C)=CCCC1(C)C` (stereo not drawn) [α-isomethylionone, 3-methyl-4-(2,6,6-trimethyl-2-cyclohexen-1-yl)-3-buten-2-one] the same measures were “reduced the discomfort due to each malodor” and 3.1.
For the compound `O=C1CCCC=CCCCCCCCCCC1` [Ambretone, 5-cyclohexadecenone], the “effect on reducing the discomfort due” value in assay [2] was “reduced the discomfort due to each malodor”. For the same compound, in assay [1], the Hexanal odor intensity is 3.5.
Regarding `CCCC(O)CCC1C(C)CCCC1(C)C` (stereo not shown) [Dextramber, 1-(2,2,6-trimethylcyclohexyl)hexan-3-ol], in assay [2], the “effect on reducing the discomfort due” value was “reduced the discomfort due to each malodor”. Also, the Hexanal odor intensity in assay [1] is recorded as 3.0.
